According to patent publication US20140079778A1, “Pharmaceutical Formulations Including An Amine Compound” (AstraZeneca UK Limited, priority 2011, published 2014):
Where two headings read alike, the source gives them in different places.

Key:
[1] = Example 6: NFA of saxagliptin in saxagliptin/Opadry II films with amino acids (HPLC); type: physicochemical; conditions: for % NFA (as a % of saxagliptin peak): Saxagliptin/Opadry II films, amino acid 2% w/w in dispersion, sealed vials 60° C. five days, control without amine 2.63
[2] = Saxagliptin Hydrochloride/Opadry II films, amino acid 2% w/w in dispersion, 60° C. five days; control without amine 2.73
[3] = type: physicochemical; conditions: Saxagliptin Hydrochloride/Opadry II films, amine 2% w/w in dispersion, 60° C. five days; control without amine 2.73
[4] = Example 4: NFA of saxagliptin in saxagliptin/Opadry II films with amine compounds (HPLC); type: physicochemical; conditions: amine 2% w/w in dispersion, sealed vials 60° C. five days, control without amine 2.63

SMILES | % NFA (as a % of saxagliptin peak) [1] | extraneous peaks in the chromatogram ([1]; saxagliptin and saxagliptin hydrochloride Opadry II films, HPLC) | % NFA (as a % of saxagliptin peak) [2] | % NFA (as a % of saxagliptin peak) [3] | % NFA (as a % of saxagliptin peak) [4] | protecting saxagliptin from reaction with formyl species (rank among amino acids) ([1]; saxagliptin and saxagliptin hydrochloride Opadry II films)
N=C(N)NCCC[C@H](N)C(=O)O [Arginine, arginine] | 0% | formation of extraneous unidentified peaks | 0% | – | – | –
NCCCC[C@H](N)C(=O)O [Lysine, lysine] | 2.84% | – | 2.08% | – | – | –
NCCO [Ethanolamine, ethanolamine] | – | – | – | 0% | 0% | –
NCC(=O)O [Glycine, glycine] | 0% | – | 0% | – | – | most potent
OCCNCCO [Diethanolamine, diethanolamine] | – | – | – | 0.62% | 3.61% | –
N[C@@H](Cc1c[nH]cn1)C(=O)O [Histidine, histidine] | 1.68% | – | – | – | – | –
